Experimental data reported in ChEMBL document CHEMBL6071157, “Improved N-phenylpyrrolamide inhibitors of DNA gyrase as antibacterial agents for high-priority bacterial strains” (Eur J Med Chem, 2024).
In brackets after ≈: the same amount, converted by molar mass.

Assays:
DNA gyrase [1] = biological target: DNA gyrase (Escherichia coli, UniProt P0AES4+P0AES6); experiment: Inhibition of Escherichia coli DNA gyrase by supercoiling plate assay; assay type: protein-complex assay
DNA gyrase [2] = biological target: DNA gyrase (Staphylococcus aureus, UniProt P0A0K8+P20831); experiment: Inhibition of Staphylococcus aureus DNA gyrase by supercoiling plate assay; assay type: protein-complex assay
Sequence of DNA gyrase (Staphylococcus aureus, UniProt P0A0K8+P20831) (P0A0K8 whole entry): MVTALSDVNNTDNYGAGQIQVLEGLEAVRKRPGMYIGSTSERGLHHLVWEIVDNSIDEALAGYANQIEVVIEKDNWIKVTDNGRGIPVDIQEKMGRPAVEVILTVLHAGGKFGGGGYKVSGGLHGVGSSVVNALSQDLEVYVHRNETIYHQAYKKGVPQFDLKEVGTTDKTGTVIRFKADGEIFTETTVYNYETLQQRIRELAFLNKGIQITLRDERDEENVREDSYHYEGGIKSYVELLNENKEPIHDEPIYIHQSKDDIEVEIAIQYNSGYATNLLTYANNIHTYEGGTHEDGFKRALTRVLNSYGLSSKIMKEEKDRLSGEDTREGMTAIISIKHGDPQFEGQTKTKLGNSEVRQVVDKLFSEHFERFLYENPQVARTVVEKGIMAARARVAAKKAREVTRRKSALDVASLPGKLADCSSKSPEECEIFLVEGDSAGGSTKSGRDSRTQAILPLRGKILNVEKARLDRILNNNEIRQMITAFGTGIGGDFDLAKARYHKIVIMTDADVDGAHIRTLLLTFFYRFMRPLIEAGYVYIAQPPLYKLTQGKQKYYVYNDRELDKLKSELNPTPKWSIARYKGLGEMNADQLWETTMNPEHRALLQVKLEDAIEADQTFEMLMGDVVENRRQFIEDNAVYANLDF
Sequence of DNA gyrase (Staphylococcus aureus, UniProt P0A0K8+P20831) (P20831 whole entry): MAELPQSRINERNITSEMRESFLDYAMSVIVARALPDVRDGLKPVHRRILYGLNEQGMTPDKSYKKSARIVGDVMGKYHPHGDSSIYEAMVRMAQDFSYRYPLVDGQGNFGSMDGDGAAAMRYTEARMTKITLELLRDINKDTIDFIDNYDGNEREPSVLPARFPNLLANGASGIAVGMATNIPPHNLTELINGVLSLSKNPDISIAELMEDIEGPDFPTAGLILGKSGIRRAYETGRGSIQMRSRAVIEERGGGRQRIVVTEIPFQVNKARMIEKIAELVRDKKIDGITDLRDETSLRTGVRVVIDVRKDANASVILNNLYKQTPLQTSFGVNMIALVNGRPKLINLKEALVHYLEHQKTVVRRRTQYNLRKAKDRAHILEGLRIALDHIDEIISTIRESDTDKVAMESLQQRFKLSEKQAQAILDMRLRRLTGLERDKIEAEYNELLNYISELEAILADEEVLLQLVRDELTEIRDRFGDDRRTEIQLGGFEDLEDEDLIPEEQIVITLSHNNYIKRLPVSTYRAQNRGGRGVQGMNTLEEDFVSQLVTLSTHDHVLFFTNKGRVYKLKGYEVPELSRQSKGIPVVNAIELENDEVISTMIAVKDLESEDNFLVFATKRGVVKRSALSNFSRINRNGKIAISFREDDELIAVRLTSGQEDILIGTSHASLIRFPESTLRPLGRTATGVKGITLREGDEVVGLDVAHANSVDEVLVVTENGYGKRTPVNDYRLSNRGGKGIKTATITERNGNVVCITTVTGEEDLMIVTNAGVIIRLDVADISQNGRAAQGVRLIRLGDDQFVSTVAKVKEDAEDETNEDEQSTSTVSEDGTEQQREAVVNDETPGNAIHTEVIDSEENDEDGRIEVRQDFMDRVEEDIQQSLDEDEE

[3] = Inhibition of Escherichia coli DNA topoisomerase-IV relaxation plate assay
[4] = biological target: T1, DNA topoisomerase 2-alpha (Homo sapiens, UniProt P11388); experiment: Inhibition of human DNA topoisomerase 2-alpha using linear pBR322 as substrate assessed as conversion of NADH to NAD+ by measuring residual activity at 100 uM preincubated for 10 to 15 mins in presence of pyruvate kinase/lactate dehydrogenase mix followed by ATP addition and measured after 30 mins by ATPase assay relative to control; details: time 40-55 min
T1 sequence (P11388 whole entry): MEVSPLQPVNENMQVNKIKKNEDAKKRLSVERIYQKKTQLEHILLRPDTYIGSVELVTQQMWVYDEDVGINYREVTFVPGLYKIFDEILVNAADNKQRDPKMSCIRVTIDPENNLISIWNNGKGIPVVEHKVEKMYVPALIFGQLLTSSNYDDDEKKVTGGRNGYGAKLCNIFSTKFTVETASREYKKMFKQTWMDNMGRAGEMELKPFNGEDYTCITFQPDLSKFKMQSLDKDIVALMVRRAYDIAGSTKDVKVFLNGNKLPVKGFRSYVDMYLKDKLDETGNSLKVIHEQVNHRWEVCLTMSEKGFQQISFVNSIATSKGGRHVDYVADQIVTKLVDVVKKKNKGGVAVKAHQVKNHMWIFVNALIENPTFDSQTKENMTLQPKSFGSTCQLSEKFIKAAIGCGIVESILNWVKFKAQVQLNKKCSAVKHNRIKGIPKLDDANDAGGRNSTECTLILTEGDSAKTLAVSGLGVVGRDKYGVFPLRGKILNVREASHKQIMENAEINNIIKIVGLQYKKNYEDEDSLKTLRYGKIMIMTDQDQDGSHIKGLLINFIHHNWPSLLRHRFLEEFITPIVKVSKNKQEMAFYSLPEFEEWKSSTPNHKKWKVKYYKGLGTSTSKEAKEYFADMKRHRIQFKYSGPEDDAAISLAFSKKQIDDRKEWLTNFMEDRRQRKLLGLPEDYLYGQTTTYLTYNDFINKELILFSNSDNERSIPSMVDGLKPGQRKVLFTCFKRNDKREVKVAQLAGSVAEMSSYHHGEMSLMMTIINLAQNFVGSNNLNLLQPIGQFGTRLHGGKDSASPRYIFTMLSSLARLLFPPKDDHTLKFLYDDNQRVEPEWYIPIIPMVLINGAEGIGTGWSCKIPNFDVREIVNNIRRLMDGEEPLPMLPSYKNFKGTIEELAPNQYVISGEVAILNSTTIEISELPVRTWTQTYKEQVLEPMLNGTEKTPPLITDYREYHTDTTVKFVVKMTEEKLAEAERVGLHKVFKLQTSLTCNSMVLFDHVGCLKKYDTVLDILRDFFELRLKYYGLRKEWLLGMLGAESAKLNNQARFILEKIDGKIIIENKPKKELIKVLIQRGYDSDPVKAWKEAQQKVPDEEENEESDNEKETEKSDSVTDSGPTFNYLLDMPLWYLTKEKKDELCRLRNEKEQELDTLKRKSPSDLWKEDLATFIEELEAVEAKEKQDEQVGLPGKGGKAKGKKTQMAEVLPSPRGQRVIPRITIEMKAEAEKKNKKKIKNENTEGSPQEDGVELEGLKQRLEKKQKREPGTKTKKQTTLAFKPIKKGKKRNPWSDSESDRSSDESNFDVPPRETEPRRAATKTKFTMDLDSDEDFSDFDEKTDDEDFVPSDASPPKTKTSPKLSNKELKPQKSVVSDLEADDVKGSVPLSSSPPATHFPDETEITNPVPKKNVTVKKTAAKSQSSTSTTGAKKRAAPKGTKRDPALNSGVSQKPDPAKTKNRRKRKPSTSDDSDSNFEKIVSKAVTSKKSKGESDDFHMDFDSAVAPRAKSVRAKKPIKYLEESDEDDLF

Staphylococcus aureus [5] = experiment: Antibacterial activity against Staphylococcus aureus ATCC 29213 assessed as inhibition of bacterial growth by broth microdilution method; assay type: functional
Staphylococcus aureus [6] = experiment: Antibacterial against methicillin resistant Staphylococcus aureus ATCC 43300 assessed as inhibition of bacterial growth by broth microdilution method; assay type: functional; details: time 24 hrs
Staphylococcus aureus [7] = experiment: Antibacterial against vancomycin-intermediate Staphylococcus aureus ATCC 700699 assessed as inhibition of bacterial growth by broth dilution method; assay type: functional
Enterococcus faecalis = experiment: Antibacterial activity against Enterococcus faecalis ATCC 29212 assessed as inhibition of bacterial growth by broth microdilution method; assay type: functional
Enterococcus faecium = experiment: Antibacterial activity against vancomycin-resistant Enterococcus faecium ATCC 700221 assessed as inhibition of bacterial growth by broth microdilution method; assay type: functional
Escherichia coli [8] = experiment: Antibacterial activity against Escherichia coli ATCC 25922 assessed as inhibition of bacterial growth by broth microdilution method; assay type: functional
Enterobacter cloacae = experiment: Antibacterial activity against Enterobacter cloacae subsp. cloacae ATCC 13047 assessed as inhibition of bacterial growth by broth microdilution method; assay type: functional
Pseudomonas aeruginosa = experiment: Antibacterial activity against Pseudomonas aeruginosa ATCC 27853 assessed as inhibition of bacterial growth by broth microdilution metho; assay type: functional
Klebsiella pneumoniae = experiment: Antibacterial activity against Klebsiella pneumoniae ATCC 10031 assessed as inhibition of bacterial growth by broth microdilution method; assay type: functional
Acinetobacter baumannii = experiment: Antibacterial activity against Acinetobacter baumannii ATCC 17978 assessed as inhibition of bacterial growth by broth microdilution method; assay type: functional
MCF7 = experiment: Cytotoxicity against human MCF7 cells assessed as cell viability at 50 uM incubated for 72 hrs by CellTiter 96 aqueous one solution reagent based MTS assay relative to control; assay type: functional; details: read-out: Activity
Escherichia coli [9] = experiment: Inhibition of Escherichia coli DNA topoisomerase-IV assessed as residual activity at 10 uM by relaxation plate assay relative to control
[10] = Metabolic stability in human liver microsomes assessed as half life at 1 uM preincubated for 10 mins followed by NADPH addition and measured after 5 to 60 mins by LC-MS/MS analysis; assay type: ADME, Microsome; details: time 15-70 min
[11] = Metabolic stability in human liver microsomes assessed as intrinsic clearance at 1 uM preincubated for 10 mins followed by NADPH addition and measured after 5 to 60 mins by LC-MS/MS analysis; assay type: ADME, Microsome; details: time 15-70 min, read-out: CLH
[12] = Metabolic stability in mouse liver microsomes assessed as half life at 1 uM preincubated for 10 mins followed by NADPH addition and measured after 5 to 60 mins by LC-MS/MS analysis; assay type: ADME, Microsome; details: time 15-70 min
[13] = Metabolic stability in mouse liver microsomes assessed as intrinsic clearance at 1 uM preincubated for 10 mins followed by NADPH addition and measured after 5 to 60 mins by LC-MS/MS analysis; assay type: ADME, Microsome; details: time 15-70 min, read-out: CLH
[14] = biological target: T1, DNA topoisomerase 2-alpha; experiment: Inhibition of human DNA topoisomerase 2-alpha using linear pBR322 as substrate assessed as conversion of NADH to NAD+ preincubated for 10 to 15 mins in presence of pyruvate kinase/lactate dehydrogenase mix followed by ATP addition and measured after 30 mins by ATPase assay
Escherichia coli [15] = experiment: Inhibition of Escherichia coli DNA topoisomerase-IV assessed as residual activity at 1 uM by relaxation plate assay relative to control

Row | SMILES | IC50 (DNA gyrase [1]) [nM] | IC50 (DNA gyrase [2]) [nM] | IC50 [3] [nM] | Activity [4] [%] | MIC (Staphylococcus aureus [5]) [µg/mL] | MIC (Staphylococcus aureus [6]) [µg/mL] | MIC (Staphylococcus aureus [7]) [µg/mL] | MIC (Enterococcus faecalis) [µg/mL] | MIC (Enterococcus faecium) [µg/mL] | MIC (Escherichia coli [8]) [µg/mL] | MIC (Enterobacter cloacae) [µg/mL] | MIC (Pseudomonas aeruginosa) [µg/mL] | MIC (Klebsiella pneumoniae) [µg/mL] | MIC (Acinetobacter baumannii) [µg/mL] | viability at 50 µM (MCF7) [%] | Activity (Escherichia coli [9]) [%] | microsomal CLint at 1 µM [11] [µL/min/mg] | half-life at 1 µM [12] [min] | microsomal CLint at 1 µM [13] [µL/min/mg] | IC50 [14] [nM] | further results
1 | Cc1[nH]c(C(=O)Nc2ccc(-c3noc(=O)[nH]3)cc2N2CCCC(CN)C2)c(Cl)c1Cl.Cl (configuration not stated) | 3.19 | 24.1 | 41.8 | 93 | 4 | 4 | 2 | 0.25 | 2 | > 64 | > 64 | > 64 | 2 | > 64 | 88 |  |  |  |  |  | 
2 | Cc1[nH]c(C(=O)Nc2ccc(-n3nn[nH]c3=O)cc2N2CC[C@H](N)C2)c(Cl)c1Cl.Cl | 4.9 | 121 |  | 108 | > 32 | > 32 | 64 | 64 | > 32 | > 32 | > 32 | > 32 | > 32 | > 32 |  | 26 |  |  |  |  | 
3 | Cc1[nH]c(C(=O)Nc2ccc(-c3noc(=O)[nH]3)cc2N2CCN(c3ccccc3)CC2)c(Cl)c1Cl | 109 |  |  | 98 | 4 (≈ 7.79 µM) | 0.063 (≈ 0.123 µM) | 2 (≈ 3.9 µM) | 0.125 (≈ 0.243 µM) | 4 (≈ 7.79 µM) | > 64 | > 64 | > 64 | > 64 | > 64 | 68 | 71 | < 9.6 | > 145 | < 9.6 |  | half-life at 1 µM [10]: > 145 min
4 | O=C(O)Cc1ccccc1Nc1c(Cl)cccc1Cl [DICLOFENAC] |  |  |  |  |  |  |  |  |  |  |  |  |  |  |  |  | 238 | 48.8 | 28.4 |  | 
5 | Cc1[nH]c(C(=O)Nc2ccc(-c3nnn[nH]3)cc2N2CCOCC2)c(Cl)c1Cl | 44.5 |  |  |  | > 64 | > 64 |  |  | > 64 | > 64 | > 64 | > 64 | > 64 | > 64 |  |  |  |  |  | 39200 | Activity (Escherichia coli [15]): 77%
6 | Cc1[nH]c(C(=O)Nc2ccc(-c3noc(=O)[nH]3)cc2N2CCC(N)CC2)c(Cl)c1Cl.Cl | 0.253 |  | 187 |  | 64 | 32 | 16 | 32 | 32 | > 64 | > 64 | > 64 | 64 | > 64 |  |  |  |  |  | 26200 | 
7 | C[C@]12CC[C@H]3[C@@H](CCC4=CC(=O)CC[C@@]43C)[C@@H]1CC[C@@H]2O [TESTOSTERONE] |  |  |  |  |  |  |  |  |  |  |  |  |  |  |  |  | 60.9 | 8.2 | 169 |  | half-life at 1 µM [10]: 22.7 min
8 | Cc1[nH]c(C(=O)Nc2ccc(-c3noc(=O)[nH]3)cc2N2CCCC(N)C2)c(Cl)c1Cl.Cl (configuration not stated) | 2.49 | 55.8 | 145 | 91 | > 64 | > 64 | > 64 | 8 | 8 | > 64 | > 64 | > 64 | 16 | > 64 | 95 |  |  |  |  |  | 
9 | Cc1[nH]c(C(=O)Nc2ccc(-n3nn[nH]c3=O)cc2N2CCN(c3ccccc3)CC2)c(Cl)c1Cl | 7.8 |  |  |  | > 32 | > 32 | 0.5 (≈ 0.974 µM) | 0.5 (≈ 0.974 µM) | 0.5 (≈ 0.974 µM) | > 32 | > 32 | > 32 | > 32 | > 32 | 58 | 104 |  |  |  | 33600 | 
